According to publication PMC10762035, “Molecular basis of human trace amine-associated receptor 1 activation” (Nature Communications, 2024):
Where a chain is given by its changes, count along the chain named. “And” between values parts separate entries of the source, which are not always exact repeats. Equal entries are not always repeated. Where two headings read alike, the source gives them in different places.

How the values were obtained:
hTA1 C5S = molecular target: T1, hTA1 C5S (Homo sapiens, UniProt Q96RJ0, C5S); assay: GloSensor cAMP accumulation assay, C5S mutant; assay type: cell-based; conditions: for EC50: read-out: EC50; for C5S - Normalized Luminescence Counts (N=2): log[Compound], single wells
T1 construct: expressed in transfected cells; host or cells: HEK293T
T1 sequence (Q96RJ0 1-339 C5S): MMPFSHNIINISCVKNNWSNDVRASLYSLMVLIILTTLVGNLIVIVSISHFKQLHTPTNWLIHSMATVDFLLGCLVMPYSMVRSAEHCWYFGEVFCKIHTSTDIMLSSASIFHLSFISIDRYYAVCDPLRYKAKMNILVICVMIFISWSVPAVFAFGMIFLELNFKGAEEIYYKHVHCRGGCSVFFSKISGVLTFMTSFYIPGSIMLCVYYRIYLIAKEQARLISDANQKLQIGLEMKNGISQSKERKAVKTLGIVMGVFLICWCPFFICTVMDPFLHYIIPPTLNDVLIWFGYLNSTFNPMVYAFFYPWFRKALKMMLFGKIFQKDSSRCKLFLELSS

hTA1 R83H = molecular target: T2, hTA1 R83H (Homo sapiens, UniProt Q96RJ0, R83H); assay: GloSensor cAMP accumulation assay, R83H mutant; assay type: cell-based;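 also: cells transiently co-expressing hTA1 and a cAMP GloSensor, luminescence read 30 min after agonist addition at room temperature, concentration–response fitted by non-linear regression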
T2 construct: expressed in transfected cells; host or cells: HEK293T
T2 sequence (Q96RJ0 1-339 R83H): T1 sequence (Q96RJ0 1-339 C5S) with S5C, R83H

hTA1 = molecular target: T3, hTA1 (Homo sapiens, UniProt Q96RJ0); assay: Screen of 89 aminergic compounds at 10 µM, cAMP accumulation in HEK293T cells; assay type: cell-based; conditions: 10 µM of compound; HEK293T; threshold log2-fold change of 2;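 also: HEK293T cells co-transfected with hTA1 and GloSensor cAMP reporter, cAMP accumulation detected by luminescence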
T3 construct: expressed in transfected cells; host or cells: HEK293T
T3 sequence (Q96RJ0 1-339): T1 sequence (Q96RJ0 1-339 C5S) with S5C

hTA1 T194A = molecular target: T4, hTA1 T194A (Homo sapiens, UniProt Q96RJ0, T194A); assay: GloSensor cAMP accumulation assay, T194A mutant; conditions: for cAMP accumulation response, individual replicate values of the concentration-response curve: hTA1 T194A, log[Agonist], Supplementary Figure 5 source data
T4 sequence (Q96RJ0 1-339 T194A): T1 sequence (Q96RJ0 1-339 C5S) with S5C, T194A

Structure (SMILES): CN1CC2c3ccccc3Oc3ccc(Cl)cc3C2C1 (centres unmarked) [asenapine]
- EC50 (hTA1 C5S; C5S, n=2): 261 nM
- Emax (hTA1 C5S; C5S, n=2, read-out: Span ± SEM (Emax normalized to β-PEA)): 83.2 ± 1.59%
- ΔpEC50 values (each mutant value - WT average), Mean (hTA1 R83H; R83H, Asenapine): -1.278 and -1.426
- Emax values, Mean (hTA1 R83H; R83H, Asenapine, per experiment, 3 replicates): 22.9611 and 11.3307
- EC50 (hTA1 R83H; R83H, Asenapine, per experiment, 3 replicates, read-out: pEC50 values Mean (converted)): 1640 nM and 2310 nM
- EC50 (hTA1 R83H; R83H, n=2, read-out: EC50): 1950 nM
- Emax (hTA1 R83H; R83H, n=2, read-out: Span ± SEM (Emax normalized to β-PEA)): 17.1 ± 5.82%
- increase of signal over DMSO-treated controls (hTA1 activation) (hTA1): ≥ 4 fold
- EC50 (hTA1 T194A; EC50, T194A): 540 nM
- Emax values of Asenapine (hTA1 T194A; T194A, Mean of one experiment): 80.8072
- ΔEmax values (each mutant value - WT average), T194A, Mean (hTA1 T194A; hTA1 T194A mutant vs WT average, Figure 6B, each line is one experiment (3 replicates)): 2.977 and -7.9001
- EC50 (hTA1 T194A; pEC50 values of Asenapine, T194A, Mean of one experiment): 383 nM and 477 nM
- EC50 (hTA1 T194A; pEC50 ± SEM, T194A): 457 nM
- Emax (hTA1 T194A; read-out: Emax values of Asenapine, T194A, Mean of one experiment): 91.7%
- Emax (hTA1 T194A; read-out: Span ± SEM (Emax normalized to β-PEA), T194A): 120%

Structure (SMILES): NCCc1ccccc1 [β-PEA, β-phenethylamine]
- Span ± SEM (Emax normalized to β-PEA) (hTA1 C5S; C5S, n=2): 100 ± 2.22
- pEC50 ± SEM (hTA1 C5S; C5S, n=2): 7.04 ± 0.05
- EC50 (hTA1 C5S; C5S, n=2): 90.7 nM
- ΔEmax values (each mutant value - WT average), Mean (hTA1 C5S; hTA1 C5S minus WT average): 0
- ΔpEC50 values (each mutant value - WT average), Mean (hTA1 C5S; hTA1 C5S minus WT average): 0.0587 and -0.1606
- pEC50 values, Mean (hTA1 C5S; hTA1 C5S, mean of 3 replicates, one line per independent experiment): 7.152 and 6.9329
- Emax values, Mean (hTA1 C5S; hTA1 C5S, β-PEA = 100, mean of 3 replicates, one line per independent experiment): 100
- C5S - Normalized Luminescence Counts (N=2) (hTA1 C5S; M = -5): 105.865 and 101.779 and 112.458 and 98.7643 and 96.9001 and 118.028
- C5S - Normalized Luminescence Counts (N=2) (hTA1 C5S; M = -5.522): 88.1188 and 112.932 and 94.5762 and 114.438 and 73.9771 and 93.1716
- C5S - Normalized Luminescence Counts (N=2) (hTA1 C5S; M = -6): 83.9419 and 90.8734 and 98.6952 and 79.8459 and 79.6388
- C5S - Normalized Luminescence Counts (N=2) (hTA1 C5S; M = -6.522): 76.5362 and 74.7073 and 70.3723 and 75.427 and 66.8654 and 70.3867
- C5S - Normalized Luminescence Counts (N=2) (hTA1 C5S; M = -7): 61.9506 and 59.2638 and 58.7445 and 43.9424 and 45.3233 and 47.3256
- C5S - Normalized Luminescence Counts (N=2) (hTA1 C5S; M = -8.522): 3.721 and 3.676 and 4.421 and 4.379 and 2.308 and 3.965
- ΔEmax values (each mutant value - WT average) (hTA1 R83H; R83H mutant minus WT average): 0
- ΔpEC50 values (each mutant value - WT average) (hTA1 R83H; R83H mutant minus WT average): -1.391 and -1.424
- pEC50 values, Mean (hTA1 R83H; R83H mutant, each line an independent experiment, 3 replicates): 5.702 and 5.67
- Emax values, Mean (hTA1 R83H; R83H mutant, β-PEA = 100, each line an independent experiment, 3 replicates): 100
- Span ± SEM (Emax normalized to β-PEA) (hTA1 R83H; R83H, n=2): 100 ± 5.46
- pEC50 ± SEM (hTA1 R83H; R83H, n=2): 5.69 ± 0.07
- EC50 (hTA1 R83H; R83H, n=2, read-out: EC50): 2060 nM
- increase of signal over DMSO-treated controls (hTA1 activation) (hTA1): ≥ 4 fold
- pEC50 values, Mean (hTA1 T194A; T149A (so in the source), single experiments (3 replicates each)): 7.395 and 7.196 and 7.094
- Emax values, Mean (hTA1 T194A; T149A (so in the source), single experiments (3 replicates each), β-PEA = 100): 100
- EC50 (hTA1 T194A; T194A): 63.6 nM
- Span ± SEM (Emax normalized to β-PEA) (hTA1 T194A; T194A): 100 ± 2.46
- pEC50 ± SEM (hTA1 T194A; T194A): 7.23 ± 0.13
- cAMP accumulation response, individual replicate values of the concentration-response curve (hTA1 T194A; M = -7.522): 32.1474 and 24.1931 and 33.6304 and 28.9237 and 30.7017 and 33.27 and 42.7604 and 43.2488 and 44.1811
- cAMP accumulation response, individual replicate values of the concentration-response curve (hTA1 T194A; M = -8): 31.2036 and 13.6773 and 15.1603 and 14.8971 and 13.5142 and 22.7372 and 24.6907 and 22.9592
- cAMP accumulation response, individual replicate values of the concentration-response curve (hTA1 T194A; M = -8.522): 3.836 and 0.5999 and 3.97 and 8.1802 and 2.846 (2×) and 8.885 and 8.264 and 10.2172
- cAMP accumulation response, individual replicate values of the concentration-response curve (hTA1 T194A; M = -9): 2.487 and 2.892 and 1.813 and 0.4755 and 2.056 and 3.424 and 1.293 (2×)
- cAMP accumulation response, individual replicate values of the concentration-response curve (hTA1 T194A; M = -9.522): 1.678 and 0.1954 and 0.8695 and 0.08035 (2×) and -0.5123 and 0.3166 and -0.7046 and 0.139
- cAMP accumulation response, individual replicate values of the concentration-response curve (hTA1 T194A; M = -10): -0.6135 and -0.209 and 0.1954 and -0.5123 and -0.3148 and -0.08302 and -0.1718 and -0.749
- cAMP accumulation response, individual replicate values of the concentration-response curve (hTA1 T194A; M = -10.522): -0.4787 and -1.692 and -1.557 and -1.303 (2×) and -1.5 and -0.7934 and -0.6602 and -0.6158
- cAMP accumulation response, individual replicate values of the concentration-response curve (hTA1 T194A; M = -11): -1.4224 (2×) and -0.7483 and -0.9074 and -0.7099 and -0.4382 and -0.8378 and 0.05017
- cAMP accumulation response, individual replicate values of the concentration-response curve (hTA1 T194A; M = -11.522): 0.4651 and -1.018 and -1.153 and -0.5123 and -0.7099 (2×) and -0.4382 and -1.015 and -0.6602
- cAMP accumulation response, individual replicate values of the concentration-response curve (hTA1 T194A; M = -12): -0.07421 (2×) and -1.962 and -1.698 and -1.105 and -0.1274 and -0.6602 and -0.1718
- cAMP accumulation response, individual replicate values of the concentration-response curve (hTA1 T194A; M = -12.522): 0.0606 and 1.004 and 0.8695 and -0.9074 and -0.7099 and -0.3148 and -0.1718 and -0.305 and 0.1834
- ΔEmax values (each mutant value - WT average) (hTA1 T194A; minus WT average): 0
